Assay results as given in US20020192256A1, “Water miscible pesticide containing a synergistic cocktail of plant alkaloids” (priority 2000, published 2002).

Tested on: small green leafhoppers
Assay: Insecticidal activity of pesticides on small green leafhoppers on tea trees (Table IX)
Type: in vivo
Design: 1d after Spray Efficacy (%) / 3d after Spray Efficacy (%) / 7d after Spray Efficacy (%): concentration or dose not given beside the values
Method: Ninety-eight kilograms of this pesticide was mixed with 2 Kg of imidacloprid with low toxicity to mammals. The mixture was tested for its insecticidal efficacy on small green leafhoppers on tea trees and compared with those of 40% dichlorophos emulsion and imidacloprid, a highly toxic pesticide, and the extract of Sophora alopecuroides as described in section 1) under “Extract of alkaloids from plants”.

Compound	1d after Spray Efficacy (%)	1d after Spray Pests +/− Rate (%)	3d after Spray Efficacy (%)	3d after Spray Pests +/− Rate (%)	7d after Spray Efficacy (%)	7d after Spray Pests +/− Rate (%)
O=[N+]([O-])NC1=NCCN1Cc1ccc(Cl)nc1 [Imidacloprid, imidacloprid]	67.8%	−48.47%	61.3%	−60.3%	60.7%	−60.7%
COP(=O)(OC)OC=C(Cl)Cl [Dichlorphos, dichlorophos]	68.8%	−43.48%	64.43%	−60.87%	60.32%	−60.32%
